Source: US20230031406A1, “COMPOUNDS AND COMPOSITIONS FOR TREATING CONDITIONS ASSOCIATED WITH NLRP ACTIVITY” (Novartis AG, priority 2018, published 2023)
Where two headings read alike, the source gives them in different places. Each block holds one molecule with its values, some of them ahead of it.

System: PMA-differentiated THP-1 cells
Assay: IL-1β production in PMA-differentiated THP-1 cells stimulated with gramicidin (hTHP-1 assay containing 2% fetal bovine serum; Procedures 1 and 2)
Type: cell-based, human
Conditions: 2% fetal bovine serum
Description: The following protocol is suitable for testing the activity of the compounds disclosed herein. Procedure 1: IL-1β Production in PMA-Differentiated THP-1 Cells Stimulated with Gramicidin.
THP-1 cells were purchased from the American Type Culture Collection and sub-cultured according to instructions from the supplier. Cells were cultured in complete RPMI 1640 (containing 10% heat inactivated FBS, penicillin (100 units/ml) and streptomycin (100 μg/ml)), and maintained in log phase prior to experimental setup. Prior to the experiment, compounds were dissolved in dimethyl sulfoxide (DMSO) to generate a 30 mM stock. The compound stock was first pre-diluted in DMSO to 3, 0.34, 0.042 and 0.0083 mM intermediate concentrations and subsequently spotted using Echo550 liquid handler into an empty 384-well assay plate to achieve desired final concentration (e.g. 100, 33, 11, 3.7, 1.2, 0.41, 0.14, 0.046, 0.015, 0.0051, 0.0017 μM). DMSO was backfilled in the plate to achieve a final DMSO assay concentration of 0.37%. The plate was then sealed and stored at room temperature until required.
THP-1 cells were treated with PMA (Phorbol 12-myristate 13-acetate) (20 ng/ml) for 16-18 hours. On the day of the experiment the media was removed and adherent cells were detached with trypsin for 5 minutes. Cells were then harvested, washed with complete RPMI 1640, spun down, and resuspended in RPMI 1640 (containing 2% heat inactivated FBS, penicillin (100 units/ml) and streptomycin (100 μg/ml). The cells were plated in the 384-well assay plate containing the spotted compounds at a density of 50,000 cells/well (final assay volume 50 μl). Cells were incubated with compounds for 1 hour and then stimulated with gramicidin (5 μM) (Enzo) for 2 hours. Plates were then centrifuged at 340 g for 5 min. Cell free supernatant (40 μL) was collected using a 96—CHannel PlateMaster (Gilson) and the production of IL-1β was evaluated by HTRF (cisbio). The plates were incubated for 18 h at 4° C. and read using the preset HTRF program (donor emission at 620 nm, acceptor emission at 668 nm) of the SpectraMax i3x spectrophotometer (Molecular Devices, software SoftMax 6). A vehicle only control and a dose titration of CRID3 (100-0.0017 μM) were run concurrently with each experiment.
Procedure 2: IL-1β Production in PMA-Differentiated THP-1 Cells Stimulated with Gramicidin.
THP-1 cells were purchased from the American Type Culture Collection and sub-cultured according to instructions from the supplier. Prior to experiments, cells were cultured in complete RPMI 1640 (containing 10% heat inactivated FBS, penicillin (100 units/ml) and streptomycin (100 μg/ml)), and maintained in log phase prior to experimental setup. Prior to the experiment THP-1 were treated with PMA (Phorbol 12-myristate 13-acetate) (20 ng/ml) for 16-18 hours. Compounds were dissolved in dimethyl sulfoxide (DMSO) to generate a 30mM stock. On the day of the experiment the media was removed and adherent cells were detached with trypsin for 5 minutes. Cells were then harvested, washed with complete RPMI 1640, spun down, resuspended in RPMI 1640 (containing 2% heat inactivated FBS, penicillin (100 units/ml) and streptomycin (100 μg/ml). The cells were plated in a 384-well plate at a density of 50,000 cells/well (final assay volume […]). Compounds were first dissolved in assay medium to obtain a 5× top concentration of 500 μM. 10 step dilutions (1:3) were then undertaken in assay medium containing 1.67% DMSO. 5× compound solutions were added to the culture medium to achieve desired final concentration (e.g. 100, 33, 11, 3.7, 1.2, 0.41, 0.14, 0.046, 0.015, 0.0051, 0.0017 μM). Final DMSO concentration was at 0.37%. Cells were incubated with compounds for 1 hour and then stimulated with gramicidin (5 μM) (Enzo) for 2 hours. Plates were then centrifuged at 340 g for 5 min. Cell free supernatant (40 μL) was collected using a 96—CHannel PlateMaster (Gilson) and the production of IL-1β was evaluated by HTRF (cisbio). […]

[1] = Homo sapiens, THP-1, Table B1, class symbols, read-out: Average IC50 of compounds in hTHP-1 assay: hTHP-1 IC50
[2] = Homo sapiens, THP-1, Table B3, hTHP-1 assay, class symbols, read-out: IC50
[3] = Homo sapiens, THP-1, Table B2, class symbols, read-out: hTHP-1 IC50
[4] = Table B3, hTHP-1 assay, class symbols, read-out: IC50
[5] = Table B1, class symbols, read-out: Average IC50 of compounds in hTHP-1 assay: hTHP-1 IC50
[6] = Table B2, class symbols, read-out: hTHP-1 IC50

IC50 [1]: 5000 to 30000 nM
SMILES: Cc1nc2c(c(NC(=O)N=S(N)(=O)c3cnc(C(C)(C)O)s3)c1C)CCC2 (stereo not shown) [Compound 138, N′-((2,3-dimethyl-6,7-dihydro-5H-cyclopenta[b]pyridin-4-yl)carbamoyl)-2-(2-hydroxypropan-2-yl)thiazole-5-sulfonimidamide]

IC50 [2]: 1000 to 5000 nM
SMILES: CN[C@H]1COc2c(S(N)(=O)=NC(=O)Nc3c(C)c(C(F)(F)F)nc4c3CCC4)cnn2C1 (stereo partly drawn) [Example 580, (6R)-N′-((3-methyl-2-(trifluoromethyl)-6,7-dihydro-5H-cyclopenta[b]pyridin-4-yl)carbamoyl)-6-(methylamino)-6,7-dihydro-5H-pyrazolo[5,1-b][1,3]oxazine-3-sulfonimidamide]

IC50 [3]: 200 to 1000 nM
SMILES: C[C@@H]1CCc2c1nc1c(c2NC(=O)N=S(N)(=O)c2ccn(-c3ccccc3)n2)CCC1 (single isomer, unassigned) [Compound 700b, (R) or (S)-N′-(((R)-3-methyl-1,2,3,5,6,7-hexahydrodicyclopenta [b,e]pyridin-8-yl)carbamoyl)-1-phenyl-1H-pyrazole-3-sulfonimidamide]

IC50 [2]: 200 to 1000 nM
SMILES: CC(C)(O)c1csc(S(N)(=O)=NC(=O)Nc2c3c(nc(C(F)(F)F)c2C2CC2)CCC3)c1 (stereo not shown) [Example 609, N′-((3-cyclopropyl-2-(trifluoromethyl)-6,7-dihydro-5H-cyclopenta[b]pyridin-4-yl)carbamoyl)-4-(2-hydroxypropan-2-yl)thiophene-2-sulfonimidamide]

IC50 [4]: 200 to 1000 nM
SMILES: CCc1c(CC(F)(F)F)nc2c(c1NC(=O)N=S(N)(=O)c1sc(C(C)(C)O)cc1F)CCC2 (single isomer, unassigned) [Example 639, (R) or (S)-N′-((3-ethyl-2-(2,2,2-trifluoroethyl)-6,7-dihydro-5H-cyclopenta[b]pyridin-4-yl)carbamoyl)-3-fluoro-5-(2-hydroxypropan-2-yl) thiophene-2-sulfonimidamide]

IC50 [5]: 1000 to 5000 nM
SMILES: CC(C)(O)c1cc(F)c(S(N)(=O)=NC(=O)Nc2c3c(nc4c2CCC4(C)C)CCC3)s1 (single isomer, unassigned) [Compound 102a, (S) or (R)-N′-((3,3-dimethyl-1,2,3,5,6,7-hexahydro-dicyclopenta[b,e]pyridin-8-yl)carbamoyl)-3-fluoro-5-(2-hydroxy-propan-2-yl)thiophene-2-sulfonimidamide]

IC50 [4]: 40 to 200 nM
SMILES: CC1(C)CCc2c1nc1c(c2NC(=O)N=S(N)(=O)c2nn(C(F)F)cc2F)CCC1 (single isomer, unassigned) [Example 721, (R) or (S)-1-(difluoromethyl)-N′-((3,3-dimethyl-1,2,3,5,6,7-hexahydrodicyclopenta[b,e]pyridin-8-yl)carbamoyl)-4-fluoro-1H-pyrazole-3-sulfonimidamide]

IC50 (Homo sapiens, THP-1, Table B2, numeric bounds, read-out: hTHP-1 IC50): > 30000 nM
SMILES: CNCc1nc(C(C)(C)O)sc1S(N)(=O)=NC(=O)Nc1c2c(nc3c1CCC3(C)C)CCC2 (stereo not shown) [Compound 665, N-((3,3-dimethyl-1,2,3,5,6,7-hexahydrodicyclopenta[b,e]pyridin-8-yl)carbamoyl)-2-(2-hydroxypropan-2-yl)-4-((methylamino)methyl)thiazole-5-sulfonimidamide]

IC50 [3]: 5000 to 30000 nM
SMILES: Cc1cc(C(C)(C)O)sc1S(N)(=O)=NC(=O)Nc1c2c(nc3c1CCC3)CCC2 (stereo not shown) [Compound 695, N-((1,2,3,5,6,7-hexahydrodicyclopenta[b,e]pyridin-8-yl)carbamoyl)-5-(2-hydroxypropan-2-yl)-3-methylthiophene-2-sulfonimidamide]

IC50 [2]: 8 to 40 nM
SMILES: CCn1cc(F)c(S(N)(=O)=NC(=O)Nc2c3c(nc4c2CC[C@H]4C)CCC3)n1 (stereo partly drawn) [Example 602, 1-Ethyl-4-fuoro-N′-(((R)-3-methyl-1,2,3,5,6,7-hexahydrodicyclopenta[b,e]pyridin-8-yl)carbamoyl)-1H-pyrazole-3-sulfonimidamide]

IC50 (Table B4, class symbols, read-out: hTHP-1 IC50): 1000 to 5000 nM
SMILES: Cc1c(C(F)(F)F)nc2c(c1NC(=O)N=S(N)(=O)c1nn(-c3ccccc3)cc1F)CCC2 (single isomer, unassigned) [Example 783, (R) or (S)-4-fluoro-N′-((3-methyl-2-(trifluoromethyl)-6,7-dihydro-5H-cyclopenta [b]pyridin-4-yl)carbamoyl)-1-phenyl-1H-pyrazole-3-sulfonimidamide]

IC50 [1]: 5000 to 30000 nM
SMILES: Cc1nc(C(C)(C)O)ccc1S(N)(=O)=NC(=O)Nc1c2c(nc3c1CCC3)CCC2 (stereo not shown) [Compound 157, N′-((1,2,3,5,6,7-hexahydrodicyclopenta[b,e]pyridin-8-yl)carbamoyl)-6-(2-hydroxypropan-2-yl)-2-methylpyridine-3-sulfonimidamide]

IC50 [3]: 5000 to 30000 nM
SMILES: Cc1c(C(F)(F)F)nc2c(c1NC(=O)N=[S@](N)(=O)c1ccn(C)n1)CCC2 (single isomer, unassigned) [Compound 730a]

IC50 [6]: 200 to 1000 nM
SMILES: CC(C)(O)c1sc(S(N)(=O)=NC(=O)Nc2c3c(nc4c2CCC4)CCC3)cc1Cl (single isomer, unassigned) [Compound 688a, (R) or (S)-4-Chloro-N′-((1,2,3,5,6,7-hexahydrodicyclopenta [b,e]pyridin-8-yl)carbamoyl)-5-(2-hydroxypropan-2-yl)thiophene-2-sulfonimidamide]

IC50 [6]: 40 to 200 nM
SMILES: CCc1nc2c(c(NC(=O)N=S(N)(=O)c3sc(C(C)(C)O)cc3F)c1C1CC1)CCC2 (single isomer, unassigned) [Compound 631b, (R) or (S)-N′-((3-cyclopropyl-2-ethyl-6,7-dihydro-5H-cyclopenta[b]pyridin-4-yl)carbamoyl)-3-fluoro-5-(2-hydroxypropan-2-yl)thiophene-2-sulfonimidamide]

IC50 [6]: 40 to 200 nM
SMILES: CC(C)(O)c1sc(S(N)(=O)=NC(=O)Nc2c3c(nc4c2CCC42CC2)CCC3)cc1F (single isomer, unassigned) [Compound 614a, (R) or (S)-4-Fluoro-5-(2-hydroxypropan-2-yl)-N′-((1′,5′,6′,7′-tetrahydro-2′H-spiro[cyclopropane-1,3′-dicyclopenta[b,e]pyridin]-8′-yl)carbamoyl) thiophene-2-sulfonimidamide]

IC50 [5]: 40 to 200 nM
SMILES: CC1(C)CCc2c1nc1c(c2NC(=O)N=S(N)(=O)c2ccn(C(F)F)n2)CCC1 (single isomer, unassigned) [Compound 122a, (R) or (S)-1-(difluoromethyl)-N′-((3,3-dimethyl-1,2,3,5,6,7-hexahydrodicyclo-penta[b,e]pyridin-8-yl)carbamoyl)-1H-pyrazole-3-sulfonimidamide]

IC50 (Homo sapiens, THP-1, Table B4, class symbols, read-out: hTHP-1 IC50): 200 to 1000 nM
SMILES: C[C@@H]1CCc2c1nc1c(c2NC(=O)N=S(N)(=O)c2cnc([C@@](C)(O)CO)s2)CCC1 (single isomer, unassigned) [Example 730]

IC50 [6]: 1000 to 5000 nM
SMILES: CC(C)c1cnc(F)c(C(C)C)c1NC(=O)N=S(N)(=O)c1cnc(C(C)(C)O)s1 (single isomer, unassigned) [Compound 115b, (R) or (S)-N′-((2-fluoro-3,5-diisopropylpyridin-4-yl)carbamoyl)-2-(2-hydroxypropan-2-yl)thiazole-5-sulfonimidamide]
